Test results taken from patent US4457932A, “Anti-ulcer agents” (Bristol-Myers Company, priority 1983, dated 1984).
Read-outs that look alike come from different tables or passages of the source.

What was measured:
[1] = tested on: ethanol-induced gastric ulcers (lesions); experiment: Ethanol-induced ulcer model in the rat; format: in vivo, Adult male Long-Evans rats; conditions: for inhibition in vivo at 30 mg/kg: 30 mg/kg p.o.; for inhibition in vivo at 50 mg/kg: 50 mg/kg p.o.
Experimental: The effectiveness of the compounds of Formula I as cytoprotective agents was determined by an ethanol-induced ulcer model in the rat. This model is a modification of the procedure described by A. Robert in Scand. J. Gastroenterology 16: (Suppl. 67): 243 (1981). This model which screens for cytoprotective compounds is based on the ability of 100% ethanol to produce gastric ulcers (primarily in the fundic region of the stomach) in rats in a dose-related manner. Further details of the model are described below.
Adult male Long-Evans rats weighing 275-300 grams (Blue Spruce Farm, Alton, N.Y.) are used. Animals are housed individually in stainless steel cages with wire-mesh bottoms. The housing battery is arranged into six groups of five each, individually numbered from rat number 1, group 1 to rat number 5, group 6. Food and water are removed 24 and 18 hours, respectively, prior to testing. On the following day animals receive the test compound either p.o., s.c. or i.p. 30 minutes or more before administration of 100% ethanol (3.0 ml/kg) by gavage. Sixty minutes later the animals are sacrificed by administration of T-61 (Hoechst), 0.2 ml i.p.
An abdominal incision is made and, after clamping the esophagus just above the esophageal sphincter with tweezers, the stomach is carefully lifted from the abdominal cavity. Two cuts are made approximately 1/2" below the pyloric valve and 1/2" above the esophageal sphincter, and the stomach removed and set aside. This step is very rapid (2-3 seconds) and no loss of gastric contents is apparent. The size of the stomach including contents is noted as small, medium or large. Stomachs are cut open along the lesser curvature and the contents expressed into graduated centrifuge tubes.
Under these conditions, ethanol produces prominent macroscopic lesions in the corpus, but gross macroscopic changes are only very rarely observed in the forestomach. […] In addition, absence of the forestomach allows the remaining stomach to lie flat on a surface for photography and examination without undue stretching of the tissue. For these reasons, the forestomach (along with nongastric tissue) is removed.
The remaining corpus and antrum are rinsed in water and placed flat in a standard position. The tissue is photographed with a Polaroid close-up camera and scoring of lesions is done from this permanent record. Each photograph includes a reference scale in mm. Two scoring systems are used. For screening purposes each stomach is graded on a scale of 0 to 3 as described below:
Where more precise data are needed, e,g, in determining the ED50 for a compound, the total lesion area in mm is measured. Barely visible spots (petechiae) are scored as 1 mm each. For each treatment group, an average score is calculated. From this, the percent inhibition of lesion formation, I, is calculated as:
I=Lesion Score (controls)-Lesion Score(treated)X 100 Lesion Score(controls)
In dose-response studies, the ED50 (dose at which 50% inhibition of lesion formation occurs) is determined by probit analysis according to Finney.

[2] = tested on: aspirin-stress gastric ulcer; experiment: Aspirin-stress gastric ulcer model in rats; format: in vivo; conditions: 100 mg/kg p.o.
Experimental: (§1) The compound of Formula I wherein R^4 is methyl and R^1, R^2 and R^3 are each hydrogen was also tested in several other ulcer models. […] The results in the above models are probably indicative of the lack of significant anti-secretory activity in the compound of the present invention.

[3] = tested on: cysteamine-induced duodenal ulcer; experiment: Cysteamine-induced duodenal ulcer model in rats; format: in vivo; conditions: dosed seven times over 30 hours (40 mg/kg, p.o.)
Experimental: as §1

gastric secretion = experiment: Gastric secretion in the conscious gastric fistula rat; format: in vivo; conditions: oral, read-out: oral ED50, block of gastric secretion
Experimental: as §1

[4] = tested on: HCl-induced gastric lesions; experiment: HCl-induced gastric lesions in the rat; format: in vivo; conditions: po, read-out: ED50 against HCl-induced gastric lesions
[5] = po, rat, read-out: Antiulcer Activity, % Inhibition (of lesion formation)

## O=c1c(-c2nnn[nH]2)cnc2c3c(ccn12)CCCC3
[1]; [5]
  inhibition in vivo at 30 mg/kg: 68%

## CCCc1cccn2c(=O)c(-c3nnn[nH]3)cnc12
[1]; [5]
  inhibition in vivo at 30 mg/kg: 77%

## CCc1cccn2c(=O)c(-c3nnn[nH]3)cnc12
[1]; [5]
  inhibition in vivo at 50 mg/kg: 96%

## CN/C(=N/CCSCc1nc[nH]c1C)NC#N [Cimetidine, reference compound]
[1]; Rattus norvegicus
  ED50: 235 mg/kg

## Cc1cccc2ncc(-c3nnn[nH]3)c(=O)n12
[1]; [5]
  inhibition in vivo at 30 mg/kg: 75%

## Cc1cccn2c(=O)c(-c3nnn[nH]3)cnc12 [drawing 30]
[1]; [5]
  inhibition in vivo at 30 mg/kg: 88%
[1]; po, rat, table footnote, read-out: ED50 (dose at which 50% inhibition of lesion formation occurs)
  ED50: 0.3 mg/kg

## Cc1cccn2c(=O)c(-c3nnn[nH]3)cnc12
[2]
  activity in aspirin-stress gastric ulcer model: inactive
[3]
  activity in cysteamine-induced duodenal ulcer model: inactive
Gastric secretion
  ED50: 27 mg/kg
[4]
  ED50: 20.8 mg/kg

## CCCCc1ccc2ncc(-c3nnn[nH]3)c(=O)n2c1
[1]; [5]
  inhibition in vivo at 30 mg/kg: 54%

## Cc1ccn2c(=O)c(-c3nnn[nH]3)cnc2c1
[1]; [5]
  inhibition in vivo at 30 mg/kg: 70%

## Cc1cc(C)c2ncc(-c3nnn[nH]3)c(=O)n2c1
[1]; [5]
  inhibition in vivo at 30 mg/kg: 92%

## CCCCc1cccn2c(=O)c(-c3nnn[nH]3)cnc12
[1]; [5]
  inhibition in vivo at 50 mg/kg: 41%

## Cc1ccc2ncc(-c3nnn[nH]3)c(=O)n2c1
[1]; [5]
  inhibition in vivo at 30 mg/kg: 79%

## O=c1c(-c2nnn[nH]2)cnc2ccc(Cl)cn12
[1]; po, 12.6 mg/kg p.o., rat, read-out: Antiulcer Activity, % Inhibition (of lesion formation)
  inhibition in vivo at 12.6 mg/kg: 93%

## sucralfate [reference compound]
[1]; oral, rat
  oral ED50: 21 mg/kg

## CCCCC[C@H](O)/C=C/[C@H]1[C@H](O)CC(=O)[C@@H]1C/C=C\CCCC(=O)O [PGE2, reference compound]
[1]; oral, rat, read-out: oral ED50
  ED50: 0.024 mg/kg
